In patent US4160839A, “Carbamyltriazole insecticides” (priority 1976, dated 1979):

Key:
Assay type in all cases: in vivo
[1] = test system: southern armyworm (SA) larvae; experiment: Spray test, southern armyworm (SA) larvae on bean leaves; conditions: approx. 48 h after spraying
Procedure: (§1) Three 5 oz paper cups containing Henderson dwarf lima bean plants and one 5 oz paper cup containing Orange Gem nasturtiums, all growing in vermiculite, are placed on a turntable and sprayed to thorough wetness with 25 ml of a solution of the candidate chemical at the appropriate concentration. Nasturtiums were already infested with 50-100 bean aphids (BA). A bean plant in one paper cup was already infested with 50-100 two-spotted mites (TSM). Leaves from the two remaining bean plants are removed following spraying and placed in disposable petri dishes with 5 southern armyworm (SA) larvae in one petri dish, and 5 Mexican bean beetle (MBB) larvae in the other petri dish. The rating is done approximately 48 hours after spraying as follows:
(§2) So as to obtain more meaningful results, all tests are performed at the same time of day, whenever possible, usually in the forenoon. Temperature,illumination and humidity are the same in all tests. Atmospheric pressure is not controlled.
(§3) Results obtained with the novel insecticides of this invention at various concentrations of active chemical are tabulated below. The ratings given are for averages of three or more replicates. The oral lethal dose for 50 percent kill of laboratory rats is also recorded in the table. In conducting the toxicity tests on rats, 0.01 g of active chemical per ml in corn oil is employed as an additive to the diet of the animals.

[2] = test system: Mexican bean beetle (MBB) larvae; experiment: Spray test, Mexican bean beetle (MBB) larvae on bean leaves; conditions: approx. 48 h after spraying
Procedure: as §1, §2, §3

two-spotted mites (TSM) = experiment: Spray test, two-spotted mites (TSM) on bean plants; conditions: approx. 48 h after spraying
Procedure: as §1, §2, §3

[3] = test system: Southern Corn Rootworm (SCR); experiment: Southern Corn Rootworm (SCR) soil treatment test, root feeding damage on corn; design: scale not given here; conditions: nine days after treatment
Procedure: Three 5 oz paper cups planted each with one kernel of DeKalb XL-361 corn are treated two days after planting with 10 ml of a 125 ppm solution of the candidate compound. Compounds with high efficacy are treated at lower concentrations. The experiment is a 4×5 factorial in a randomized complete block design with three replications. The tests are evaluated nine days after treatment. The roots are inspected under a dissecting microscope and rated as follows:
as §2, §3

bean aphids (BA) = experiment: Spray test, bean aphids (BA) on nasturtiums; conditions: approx. 48 h after spraying
Procedure: as §1, §2, §3

| Structure (SMILES) | SA rating (larvae dead) ([1]; 15 ppm) | SA rating (larvae dead) ([1]; 31 ppm) | SA rating (larvae dead) ([1]; 62 ppm) | SA rating (larvae dead) ([1]; 125 ppm) | SA rating (larvae dead) ([1]; 250 ppm) | SA rating (larvae dead) ([1]; 500 ppm) | MBB rating (larvae dead) ([2]; 15 ppm) | MBB rating (larvae dead) ([2]; 31 ppm) | MBB rating (larvae dead) ([2]; 62 ppm) | MBB rating (larvae dead) ([2]; 500 ppm) | TSM rating (dead adults) (two-spotted mites (TSM); 500 ppm) | BA rating (dead) (bean aphids (BA); 2 ppm) | BA rating (dead) (bean aphids (BA); 4 ppm) | BA rating (dead) (bean aphids (BA); 8 ppm) | BA rating (dead) (bean aphids (BA); 15 ppm) | BA rating (dead) (bean aphids (BA); 31 ppm) | BA rating (dead) (bean aphids (BA); 62 ppm) | BA rating (dead) (bean aphids (BA); 125 ppm) | BA rating (dead) (bean aphids (BA); 250 ppm) | BA rating (dead) (bean aphids (BA); 500 ppm) | further results |
| --- | --- | --- | --- | --- | --- | --- | --- | --- | --- | --- | --- | --- | --- | --- | --- | --- | --- | --- | --- | --- | --- |
| C#CCSc1nc(CCC)nn1C(=O)N(C)C [R=2-propynyl, R'=propyl] | 0 (no larvae dead) | 0 (no larvae dead) | 0 (no larvae dead) | 0 (no larvae dead) | 0 (no larvae dead) | 5 (100% larvae dead) | 0 (no larvae dead) | 1 (1 -25% larvae dead) | 3 (51-75% larvae dead) | 5 (100% larvae dead) | 0 (no dead adults) | 0 (none dead) | 0 (none dead) | 1 (1-25% dead) | 5 (100% dead) | 5 (100% dead) | 5 (100% dead) | 5 (100% dead) | 5 (100% dead) | 5 (100% dead) | MBB rating (larvae dead) ([2]; 125 ppm): 5 (100% larvae dead); MBB rating (larvae dead) ([2]; 250 ppm): 5 (100% larvae dead); SCR Rating (root feeding damage) ([3]; 25 ppm): 1.3; SCR Rating (root feeding damage) ([3]; 50 ppm): 2.7; SCR Rating (root feeding damage) ([3]; 100 ppm): 3.7 |
| CN(C)C(=O)n1nc(C(C)(C)C)nc1SCC(Cl)=C(Cl)Cl [R=2,3,3-trichloro-allyl, R'=tert.butyl] |  |  |  |  |  | 0 (no larvae dead) |  |  |  | 0 (no larvae dead) | 0 (no dead adults) | 3 (51-75% dead) | 3 (51-75% dead) | 4 (76-99% dead) | 5 (100% dead) | 5 (100% dead) | 5 (100% dead) | 5 (100% dead) | 5 (100% dead) | 4 (76-99% dead) |  |
| C=C(Br)CSc1nc(C(C)(C)C)nn1C(=O)N(C)C |  |  |  |  |  | 0 (no larvae dead) |  |  |  | 2 (26-50% larvae dead) | 4 (76-99% dead adults) |  | 4 (76-99% dead) | 4 (76-99% dead) | 5 (100% dead) | 5 (100% dead) | 5 (100% dead) | 5 (100% dead) | 5 (100% dead) | 5 (100% dead) | TSM rating (dead adults) (two-spotted mites (TSM); 15 ppm): 0 (no dead adults); TSM rating (dead adults) (two-spotted mites (TSM); 31 ppm): 0 (no dead adults); TSM rating (dead adults) (two-spotted mites (TSM); 62 ppm): 0 (no dead adults); TSM rating (dead adults) (two-spotted mites (TSM); 125 ppm): 0 (no dead adults); TSM rating (dead adults) (two-spotted mites (TSM); 250 ppm): 0 (no dead adults) |
| C=C(Cl)CSc1nc(C(C)(C)C)nn1C(=O)N(C)C [R=2-chloroallyl, R'=tert.butyl] |  |  |  |  |  | 0 (no larvae dead) |  |  |  | 2 (26-50% larvae dead) | 0 (no dead adults) | 4 (76-99% dead) | 4 (76-99% dead) | 4 (76-99% dead) | 5 (100% dead) | 5 (100% dead) | 5 (100% dead) | 5 (100% dead) | 5 (100% dead) | 5 (100% dead) |  |
| C=CC(C)Sc1nc(C(C)(C)C)nn1C(=O)N(C)C (stereo not drawn) [R=1-methylallyl, R'=tert.butyl] | 0 (no larvae dead) | 0 (no larvae dead) | 0 (no larvae dead) | 0 (no larvae dead) | 0 (no larvae dead) | 4 (76-99% larvae dead) | 0 (no larvae dead) | 0 (no larvae dead) | 0 (no larvae dead) | 5 (100% larvae dead) | 0 (no dead adults) |  |  |  | 5 (100% dead) | 5 (100% dead) | 5 (100% dead) | 5 (100% dead) | 5 (100% dead) | 5 (100% dead) | MBB rating (larvae dead) ([2]; 125 ppm): 1 (1 -25% larvae dead); MBB rating (larvae dead) ([2]; 250 ppm): 1 (1 -25% larvae dead) |
